# Assay results as given in paper PMC6379965, “Expression and activity of the calcitonin receptor family in a sample of primary human high-grade gliomas” (BMC Cancer, 2019).
# Ends that are not written are not given here.
# Columns and labels:
# [1] = tested on: AMY1 (CTR + RAMP1); settings: receptor AMY1, CTR + RAMP1; ref [10], [11], [38]; cited from earlier work
# [2] = tested on: CGRP (CLR + RAMP1); settings: receptor CGRP, ref [10], [11], [38]; cited from earlier work
# [3] = tested on: AM1 (CLR + RAMP2); settings: receptor AM1, CLR + RAMP2; ref [10], [11], [38]; cited from earlier work
# [4] = tested on: CTR; settings: receptor CTR; ref [10], [11], [38]; cited from earlier work
# [5] = tested on: AMY3 (CTR + RAMP3); settings: receptor AMY3, CTR + RAMP3; ref [10], [11], [38]; cited from earlier work
# [6] = tested on: AM2 (CLR + RAMP3); settings: receptor AM2, CLR + RAMP3; ref [10], [11], [38]; cited from earlier work
# [7] = tested on: SB2b cell line; assay: cAMP accumulation, αCGRP and AM, SB2b; assay type: cell-based, human; settings: 30 min, 3 to 4 independent experiments in triplicate
# Protocol: (§1) Primary patient high-grade glioma (HGG) cell lines, in vitro surrogates of glioblastoma, were developed by QIMR-Berghofer Medical Research Institute (Brisbane, Australia) and represent 3 distinct GBM subtypes: SB2b and PB1 (classical), JK2 (proneural) and WK1(mesenchymal), who supplied these directly for this study. GBM cell lines were cultured as adherent monolayers on matrigel (BD Biosciences)-coated flasks using StemPro NSC SFM serum free cell culture medium (Thermo Fisher Scientific) supplemented with 20 ng/ml EGF and 20 ng/ml FGFb, 1% D-glutamine and 1% of penicillin/ streptomycin (further referred as StemPro complete medium).
# GBM cell lines were seeded at 38000 cells/well (SB2b) or 35,000 cells/well (PB1, JK2 and WK1) in 96-well matrigel-coated plates and incubated for 24 h at 37°C, 5% CO2 in humidified incubator in StemPro complete medium. Media was replaced with stimulation buffer (phenol red free F12 media, 0.1% BSA, 0.5 mM IBMX, pH 7.4). […] Cells were lysed (0.3% Tween 20, 5 mM Hepes, 0.1% BSA, pH 7.4) and 5 μl of cell lysate from each well was transferred to a corresponding well of 384-well optiplate. […] Data were analysed by three-parameter logistic curve and are presented as percentage of 10^− 5 M forskolin response.
# [8] = tested on: human prostate cancer cell line PC3; settings: ref [14], [15]; cited from earlier work
# Source text: (§2) Research on the role of CTR expression in cancer has been fragmentary and any role for CTR in cancer pathology seems to be entirely dependent on the cancer type. For instance, in human breast cancer model cell lines with high constitutive ERK (Extracellular Signal Regula ...
# [9] = tested on: MDA-MB-231 xenograft tumours; settings: ref [13]; cited from earlier work
# Source text: as §2
# [10] = tested on: mouse thymic lymphoma models; settings: CTR expressed as an amylin receptor, ref [18], [19]; cited from earlier work
# Source text: as §2
# [11] = tested on: SB2b cell line; assay: Ca2+ mobilization, SB2b; assay type: cell-based, human; settings: Fluo4-AM, FlexStation, 37 °C, pH 7.4, peak RFU, ATP 10 μM, ionomycin 1 μM, representative experiment, 3 replicates
# Protocol: (§4) Primary patient high-grade glioma (HGG) cell lines, in vitro surrogates of glioblastoma, were developed by QIMR-Berghofer Medical Research Institute (Brisbane, Australia) and represent 3 distinct GBM subtypes: SB2b and PB1 (classical), JK2 (proneural) and WK1(mesenchymal) [37], who supplied these directly for this study. GBM cell lines were cultured as adherent monolayers on matrigel (BD Biosciences)-coated flasks using StemPro NSC SFM serum free cell culture medium (Thermo Fisher Scientific) supplemented with 20 ng/ml EGF and 20 ng/ml FGFb, 1% D-glutamine and 1% of penicillin/ streptomycin (further referred as StemPro complete medium).
# (§5) GBM cell lines were seeded at 38000 cells/well (SB2b) or 35,000 cells/well (PB1 and WK1) in 96-well matrigel-coated plates and incubated for 24 h at 37 °C, 5% CO2 in humidified incubator in StemPro complete medium. […] Cells were incubated at 37°C for 60 min before ligand addition and detection of Ca^2+ mobilisation in a FlexStation 3 (Molecular Devices).
# [12] = tested on: PB1 cell line; assay: cAMP accumulation, CTR agonists, PB1; assay type: cell-based, human; settings: 30 min, 3 to 5 independent experiments in triplicate
# Protocol: as §1, with “medium). Cells were cultured in 5% CO2 / 95% humidified air at 37 °C.” for “medium).”
# (§3) GBM cell lines were seeded at 38000 cells/well (SB2b) or 35,000 cells/well (PB1, JK2 and WK1) in 96-well matrigel-coated plates and incubated for 24 h at 37°C, 5% CO2 in humidified incubator in StemPro complete medium. Media was replaced with stimulation buffer (phenol red free F12 media, 0.1% BSA, 0.5 mM IBMX, pH 7.4). […] Cells were lysed (0.3% Tween 20, 5 mM Hepes, 0.1% BSA, pH 7.4) and 5 μl of cell lysate from each well was transferred to a corresponding well of 384-well optiplate. Intracellular cAMP levels in the wells were determined using Lance Ultra cAMP assay kit (Perkin Elmer) according to the manufacturer’s instructions and detected using an Envision multilabel 2103 reader. Raw RFU values were converted using a cAMP standard curve to give absolute cAMP concentrations. Data were analysed by three-parameter logistic curve and are presented as percentage of 10^− 5 M forskolin response.
# [13] = tested on: PB1 cell line; assay: Ca2+ mobilization, PB1; assay type: cell-based, human; settings: Fluo4-AM, FlexStation, 37 °C, pH 7.4, peak RFU, ATP 10 μM, ionomycin 1 μM, representative experiment, 3 replicates
# Protocol: as §4, §5
# [14] = tested on: WK1 cell line; assay: Ca2+ mobilization, WK1; assay type: cell-based, human; settings: Fluo4-AM, FlexStation, 37 °C, pH 7.4, peak RFU, ATP 10 μM, ionomycin 1 μM, representative experiment, 3 replicates
# Protocol: as §4, §5
# [15] = tested on: WK1 cell line; assay: cAMP accumulation, CTR agonists, WK1; assay type: cell-based, human; settings: 30 min, agonist 10^-12-10^-6 M, 3 to 5 independent experiments in triplicate
# Protocol: as §1, with “medium). Cells were cultured in 5% CO2 / 95% humidified air at 37 °C.” for “medium).”
# GBM cell lines were seeded at 38000 cells/well (SB2b) or 35,000 cells/well (PB1, JK2 and WK1) in 96-well matrigel-coated plates and incubated for 24 h at 37°C, 5% CO2 in humidified incubator in StemPro complete medium. Media was replaced with stimulation buffer (phenol red free F12 media, 0.1% BSA, 0.5 mM IBMX, pH 7.4). […] Intracellular cAMP levels in the wells were determined using Lance Ultra cAMP assay kit (Perkin Elmer) according to the manufacturer’s instructions and detected using an Envision multilabel 2103 reader. […] Data were analysed by three-parameter logistic curve and are presented as percentage of 10^− 5 M forskolin response.
# [16] = tested on: JK2 cell line; assay: cAMP accumulation, CTR agonists, JK2; assay type: cell-based, human; settings: 30 min, 3 to 5 independent experiments in triplicate
# Protocol: as §1, with “medium). Cells were cultured in 5% CO2 / 95% humidified air at 37 °C.” for “medium).”
# as §3
molecule,measurement,setting,value
Amylin,Peptides rank order of potency (human),[1],sCT ≥ AMY ≥ αCGRP > intermedin ≥ hCT > AM
same,Peptides rank order of potency (human),[2],αCGRP > AM ≥ intermedin > AMY ≥ sCT
same,Peptides rank order of potency (human),[3],"AM > intermedin > α-CGRP, AMY > sCT"
same,Peptides rank order of potency (human),[4],"sCT ≥ hCT > AMY, αCGRP > AM, intermedin"
same,Peptides rank order of potency (human),[5],sCT ≥ AMY > αCGRP > intermedin ≥ hCT > AM
same,Peptides rank order of potency (human),[6],AM ≥ intermedin ≥ α-CGRP > AMY > SCT
"CC[C@H](C)[C@H](NC(=O)[C@H](CCC(N)=O)NC(=O)[C@H](Cc1c[nH]cn1)NC(=O)[C@H](C)NC(=O)[C@H](CC(C)C)NC(=O)[C@H](CCCCN)NC(=O)[C@H](CCC(N)=O)NC(=O)[C@@H](NC(=O)[C@@H](NC(=O)[C@@H]1CSSC[C@H](NC(=O)CNC(=O)[C@H](Cc2ccccc2)NC(=O)[C@H](CO)NC(=O)[C@H](CCCNC(=N)N)NC(=O)[C@H](CC(C)C)NC(=O)CNC(=O)[C@H](CCC(N)=O)NC(=O)[C@H](Cc2ccccc2)NC(=O)[C@H](CC(N)=O)NC(=O)[C@H](CC(N)=O)NC(=O)[C@H](CCSC)NC(=O)[C@H](CO)NC(=O)[C@H](CCC(N)=O)NC(=O)[C@H](CCCNC(=N)N)NC(=O)[C@@H](N)Cc2ccc(O)cc2)C(=O)N[C@@H](CCCNC(=N)N)C(=O)N[C@@H](Cc2ccccc2)C(=O)NCC(=O)N[C@@H]([C@@H](C)O)C(=O)N1)[C@@H](C)O)C(C)C)C(=O)N[C@@H](Cc1ccc(O)cc1)C(=O)N[C@@H](CCC(N)=O)C(=O)N[C@@H](Cc1ccccc1)C(=O)N[C@H](C(=O)N[C@@H](CC(=O)O)C(=O)N[C@@H](CCCCN)C(=O)N[C@@H](CC(=O)O)C(=O)N[C@@H](CCCCN)C(=O)N[C@@H](CC(=O)O)C(=O)N[C@@H](CC(N)=O)C(=O)N[C@H](C(=O)N[C@@H](C)C(=O)N1CCC[C@H]1C(=O)N[C@@H](CCCNC(=N)N)C(=O)N[C@@H](CO)C(=O)N[C@@H](CCCCN)C(=O)N[C@H](C(=O)N[C@@H](CO)C(=O)N1CCC[C@H]1C(=O)N[C@@H](CCC(N)=O)C(=O)NCC(=O)N[C@@H](Cc1ccc(O)cc1)C(N)=O)[C@@H](C)CC)C(C)C)[C@@H](C)O [AM, Adrenomedullin]",Peptides rank order of potency (human),[1],sCT ≥ AMY ≥ αCGRP > intermedin ≥ hCT > AM
same,Peptides rank order of potency (human),[2],αCGRP > AM ≥ intermedin > AMY ≥ sCT
same,Peptides rank order of potency (human),[3],"AM > intermedin > α-CGRP, AMY > sCT"
same,Peptides rank order of potency (human),[4],"sCT ≥ hCT > AMY, αCGRP > AM, intermedin"
same,Peptides rank order of potency (human),[5],sCT ≥ AMY > αCGRP > intermedin ≥ hCT > AM
same,"cAMP response to αCGRP, adrenomedullin (and weak amylin response)",[7],Weak responses
same,Peptides rank order of potency (human),[6],AM ≥ intermedin ≥ α-CGRP > AMY > SCT
"Calcitonin (peptide) (CGNLSTCMLGTYTQDFNKFHTFPQTAIGVGAP; ends and bridges not checked; cysteine pairing not given here; UniProt P01258 85-116, looked up) [CT]",apoptosis,[8],inhibits apoptosis
same,tumour growth and invasiveness,[8],stimulates tumour growth and invasiveness
same,growth of xenograft tumours,[9],inhibits the growth
"CC(C)C[C@H](NC(=O)[C@H](CC(N)=O)NC(=O)[C@H](CC(N)=O)NC(=O)[C@H](CO)NC(=O)[C@H](CO)NC(=O)[C@H](CCCNC(=N)N)NC(=O)[C@@H](NC(=O)[C@H](CC(C)C)NC(=O)[C@H](Cc1ccccc1)NC(=O)[C@H](CC(N)=O)NC(=O)[C@H](C)NC(=O)[C@H](CC(C)C)NC(=O)[C@H](CCCNC(=N)N)NC(=O)[C@H](CCC(N)=O)NC(=O)[C@@H](NC(=O)[C@H](C)NC(=O)[C@@H]1CSSC[C@H](NC(=O)[C@@H](N)CCCCN)C(=O)N[C@@H](CC(N)=O)C(=O)N[C@@H]([C@@H](C)O)C(=O)N[C@@H](C)C(=O)N[C@@H]([C@@H](C)O)C(=O)N1)[C@@H](C)O)C(C)C)C(=O)NCC(=O)N1CCC[C@H]1C(=O)N[C@H](C(=O)N[C@@H](CC(C)C)C(=O)N1CCC[C@H]1C(=O)N1CCC[C@H]1C(=O)N[C@H](C(=O)N[C@@H](CC(N)=O)C(=O)N[C@H](C(=O)NCC(=O)N[C@@H](CO)C(=O)N[C@@H](CC(N)=O)C(=O)N[C@H](C(=O)N[C@@H](Cc1ccc(O)cc1)C(N)=O)[C@@H](C)O)C(C)C)[C@@H](C)O)C(C)C [amylin, Amylin]",metabolic reprogramming,[10],metabolic reprogramming (switch from glycolysis to oxidative phosphorylation)
same,susceptibility to apoptosis,[10],increased susceptibility to apoptosis
same,"cAMP response to αCGRP, adrenomedullin (and weak amylin response)",[7],Weak responses
same,intracellular Ca2+ mobilisation response,[11],unable to detect functional CTR response
same,intracellular Ca2+ mobilisation response,[11]; listed as rAMY,Absence of intracellular calcium mobilization response
same,cAMP response,[12]; agonist 10^-12-10^-6 M,very weak response
same,"pEC50, cAMP accumulation","[12]; CTR agonists, 37 °C, S.E.M.",6.1 ± 0.5
same,intracellular Ca2+ mobilisation response,[13],unable to detect functional CTR response
same,intracellular Ca2+ mobilisation response,[13]; listed as rAMY,Absence of intracellular calcium mobilization response
same,intracellular Ca2+ mobilisation response,[14],unable to detect functional CTR response
same,intracellular Ca2+ mobilisation response,[14]; listed as rAMY,Absence of intracellular calcium mobilization response
same,cAMP response,[15],very weak response
same,cAMP response,[16]; agonist 10^-12-10^-6 M,very weak response
same,"pEC50, cAMP accumulation","[16]; CTR agonists, 37 °C, S.E.M.",5.9 ± 0.5
